Where a chain is given by its changes, count along the chain named.

Common to all, as to assay: E. coli hemG growth inhibition by herbicide, AtPPO1 variant
Holding throughout (type): cell-based
Conditions in all cases: read-out: percentage growth inhibition

In one experiment the target is T1, AtPPO1 Y426T (Arabidopsis thaliana, UniProt P55826, Y426T).
T1 construct: expressed in transfected cells; host or cells: E. coli BL21(DE3) hemG (pET24a, T7 promoter)
T1 sequence (P55826 35-537 Y426T): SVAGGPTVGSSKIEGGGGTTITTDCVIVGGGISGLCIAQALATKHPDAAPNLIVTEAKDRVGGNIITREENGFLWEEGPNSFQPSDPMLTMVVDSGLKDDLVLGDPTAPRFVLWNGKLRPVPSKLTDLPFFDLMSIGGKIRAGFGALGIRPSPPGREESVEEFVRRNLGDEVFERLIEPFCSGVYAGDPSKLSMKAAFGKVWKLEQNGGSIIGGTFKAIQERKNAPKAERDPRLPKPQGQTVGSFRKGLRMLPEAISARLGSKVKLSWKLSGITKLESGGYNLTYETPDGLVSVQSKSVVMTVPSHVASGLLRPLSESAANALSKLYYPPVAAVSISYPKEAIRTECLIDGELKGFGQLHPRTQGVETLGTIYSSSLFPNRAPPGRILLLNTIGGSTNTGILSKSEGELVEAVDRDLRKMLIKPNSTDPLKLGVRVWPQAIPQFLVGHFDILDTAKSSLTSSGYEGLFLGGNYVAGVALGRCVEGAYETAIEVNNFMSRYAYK
The text has this:
(§1) A pET24a plasmid containing a DNA sequence encoding a variant of PPO1 derived from Arabidopsis thaliana (AtPPO1), codon-optimised for expression in E. coli and under control of a T7 promoter, was synthesised by Twist Bioscience (SEQ ID NO:3). This plasmid was used as the basis of a Site Saturation Variant Library (SSVL) that substituted the codons at 352 amino acid positions for codons that encoded one of the other 19 amino acids, or removed the codon altogether, resulting in a translation product with a deletion at that position.
(§2) The SSVL was batch-transformed by electroporation into an E. coli BL21(DE3) hemG strain with the hemG gene replaced by CmR conferring resistance to chloramphenicol and spread onto LA supplemented with 50 μg/mL kanamycin, 25 μg/mL chloramphenicol and 20 μg/mL hematin. Each batch consisted of all the plasmids that contained variants at two sites.
(§3) Colonies from batch transformations were inoculated into 500 μL of Terrific broth supplemented with 50 μg/mL kanamycin, 25 μg/mL chloramphenicol and 20 μg/mL hematin in 96-deepwell blocks. Cultures were grown for 24 hours at 37° C. with shaking at 250 rpm.
(§4) Overnight cultures were centrifuged and the cell pellets resuspended with 500 μL of Terrific broth. The resuspended cultures were used at a ratio of 1:100 to inoculate a fresh 96-deepwell block containing 500 μL of Terrific broth supplemented with 0.1 mM IPTG, 50 μg/mL kanamycin, 25 μg/mL chloramphenicol and 6.25 ppm of herbicide […] or E or 0.78 ppm herbicide B or DMSO. Assay cultures were grown for 24 hours at 37° C. with shaking at 250 rpm with the OD600 being measured at 24 hours post inoculation. Strains that grew in both DMSO and herbicide were determined to be herbicide tolerant with the percentage of growth inhibition being calculated as below: […]

A further experiment addresses T2, AtPPO1 A176L (Arabidopsis thaliana, UniProt P55826, A176L).
T2 construct: expressed in transfected cells; host or cells: E. coli BL21(DE3) hemG (hemG replaced by CmR), pET24a plasmid
T2 sequence (P55826 35-537 A176L): T1 sequence (P55826 35-537 Y426T) with A142L, T392Y
Excerpt: as §1, §2, §3, §4

The target of the next experiment is T3, AtPPO1 Q272I (Arabidopsis thaliana, UniProt P55826, Q272I).
T3 construct: expressed in transfected cells; host or cells: E. coli BL21(DE3) hemG (hemG replaced by CmR), pET24a plasmid
T3 sequence (P55826 35-537 Q272I): T1 sequence (P55826 35-537 Y426T) with Q238I, T392Y
Excerpt: as §1, §2, §3, §4

Another experiment has as its target T4, AtPPO1 Y361P (Arabidopsis thaliana, UniProt P55826, Y361P).
T4 construct: expressed in transfected cells; host or cells: E. coli BL21(DE3) hemG (pET24a, T7 promoter)
T4 sequence (P55826 35-537 Y361P): T1 sequence (P55826 35-537 Y426T) with Y327P, T392Y
Excerpt: as §1, §2, §3, §4

The inhibition is the drop in the measured response relative to a control, in per cent. For `C#CCN1C(=O)C(F)(F)Oc2cc(F)c(-n3c(=O)n(C)c(=S)n(C)c3=O)cc21` [Herbicide B, trifludimoxazin], the inhibition at 0.78 ppm was 8% at AtPPO1 Y426T, 35% at AtPPO1 A176L, 24% on AtPPO1 Q272I and 28% on AtPPO1 Y361P.

For the compound `CCOC(=O)[C@]1(C)CC(c2cc(-n3c(=O)n(C)c(=S)n(C)c3=O)c(F)cc2Cl)=NO1` [Herbicide D, ethyl (5S)-3-[2-chloro-5-(3,5-dimethyl-2,6-dioxo-4-thioxo-1,3,5-triazinan-1-yl)-4-fluoro-phenyl]-5-methyl-4H-isoxazole-5-carboxylate], the inhibition at 6.25 ppm on AtPPO1 Y426T turned out to be 12%; on AtPPO1 A176L, 42%; at AtPPO1 Q272I, 29%; at AtPPO1 Y361P it was 36%.

For `CC(C)N(C)S(=O)(=O)NC(=O)c1cc(-n2c(=O)cc(C(F)(F)F)n(C)c2=O)c(F)cc1Cl` [Herbicide E, saflufenacil], the inhibition at 6.25 ppm is 11% on AtPPO1 Y426T, 61% on AtPPO1 A176L, 63% at AtPPO1 Q272I and 38% on AtPPO1 Y361P.
